Assay results as given in US10975081B2, “Substituted fused pyrazole compounds and their use as LRRK2 inhibitors” (GlaxoSmithKline Intellectual Property Development Limited, priority 2015, dated 2021).

What follows are compounds tested against LRRK2 Ser935 phosphorylation in SH-SY5Y cells over-expressing recombinant full length LRRK2 (Homo sapiens (Human), UniProt Q5S007) (assay: Recombinant cellular LRRK2 AlphaScreen assay). Conditions: 60 minutes, read-out: Recombinant cellular LRRK2 alphaScreen assay (pIC50) (converted).
Sequence of LRRK2 Ser935 phosphorylation in SH-SY5Y cells over-expressing recombinant full length LRRK2 (Q5S007 whole entry): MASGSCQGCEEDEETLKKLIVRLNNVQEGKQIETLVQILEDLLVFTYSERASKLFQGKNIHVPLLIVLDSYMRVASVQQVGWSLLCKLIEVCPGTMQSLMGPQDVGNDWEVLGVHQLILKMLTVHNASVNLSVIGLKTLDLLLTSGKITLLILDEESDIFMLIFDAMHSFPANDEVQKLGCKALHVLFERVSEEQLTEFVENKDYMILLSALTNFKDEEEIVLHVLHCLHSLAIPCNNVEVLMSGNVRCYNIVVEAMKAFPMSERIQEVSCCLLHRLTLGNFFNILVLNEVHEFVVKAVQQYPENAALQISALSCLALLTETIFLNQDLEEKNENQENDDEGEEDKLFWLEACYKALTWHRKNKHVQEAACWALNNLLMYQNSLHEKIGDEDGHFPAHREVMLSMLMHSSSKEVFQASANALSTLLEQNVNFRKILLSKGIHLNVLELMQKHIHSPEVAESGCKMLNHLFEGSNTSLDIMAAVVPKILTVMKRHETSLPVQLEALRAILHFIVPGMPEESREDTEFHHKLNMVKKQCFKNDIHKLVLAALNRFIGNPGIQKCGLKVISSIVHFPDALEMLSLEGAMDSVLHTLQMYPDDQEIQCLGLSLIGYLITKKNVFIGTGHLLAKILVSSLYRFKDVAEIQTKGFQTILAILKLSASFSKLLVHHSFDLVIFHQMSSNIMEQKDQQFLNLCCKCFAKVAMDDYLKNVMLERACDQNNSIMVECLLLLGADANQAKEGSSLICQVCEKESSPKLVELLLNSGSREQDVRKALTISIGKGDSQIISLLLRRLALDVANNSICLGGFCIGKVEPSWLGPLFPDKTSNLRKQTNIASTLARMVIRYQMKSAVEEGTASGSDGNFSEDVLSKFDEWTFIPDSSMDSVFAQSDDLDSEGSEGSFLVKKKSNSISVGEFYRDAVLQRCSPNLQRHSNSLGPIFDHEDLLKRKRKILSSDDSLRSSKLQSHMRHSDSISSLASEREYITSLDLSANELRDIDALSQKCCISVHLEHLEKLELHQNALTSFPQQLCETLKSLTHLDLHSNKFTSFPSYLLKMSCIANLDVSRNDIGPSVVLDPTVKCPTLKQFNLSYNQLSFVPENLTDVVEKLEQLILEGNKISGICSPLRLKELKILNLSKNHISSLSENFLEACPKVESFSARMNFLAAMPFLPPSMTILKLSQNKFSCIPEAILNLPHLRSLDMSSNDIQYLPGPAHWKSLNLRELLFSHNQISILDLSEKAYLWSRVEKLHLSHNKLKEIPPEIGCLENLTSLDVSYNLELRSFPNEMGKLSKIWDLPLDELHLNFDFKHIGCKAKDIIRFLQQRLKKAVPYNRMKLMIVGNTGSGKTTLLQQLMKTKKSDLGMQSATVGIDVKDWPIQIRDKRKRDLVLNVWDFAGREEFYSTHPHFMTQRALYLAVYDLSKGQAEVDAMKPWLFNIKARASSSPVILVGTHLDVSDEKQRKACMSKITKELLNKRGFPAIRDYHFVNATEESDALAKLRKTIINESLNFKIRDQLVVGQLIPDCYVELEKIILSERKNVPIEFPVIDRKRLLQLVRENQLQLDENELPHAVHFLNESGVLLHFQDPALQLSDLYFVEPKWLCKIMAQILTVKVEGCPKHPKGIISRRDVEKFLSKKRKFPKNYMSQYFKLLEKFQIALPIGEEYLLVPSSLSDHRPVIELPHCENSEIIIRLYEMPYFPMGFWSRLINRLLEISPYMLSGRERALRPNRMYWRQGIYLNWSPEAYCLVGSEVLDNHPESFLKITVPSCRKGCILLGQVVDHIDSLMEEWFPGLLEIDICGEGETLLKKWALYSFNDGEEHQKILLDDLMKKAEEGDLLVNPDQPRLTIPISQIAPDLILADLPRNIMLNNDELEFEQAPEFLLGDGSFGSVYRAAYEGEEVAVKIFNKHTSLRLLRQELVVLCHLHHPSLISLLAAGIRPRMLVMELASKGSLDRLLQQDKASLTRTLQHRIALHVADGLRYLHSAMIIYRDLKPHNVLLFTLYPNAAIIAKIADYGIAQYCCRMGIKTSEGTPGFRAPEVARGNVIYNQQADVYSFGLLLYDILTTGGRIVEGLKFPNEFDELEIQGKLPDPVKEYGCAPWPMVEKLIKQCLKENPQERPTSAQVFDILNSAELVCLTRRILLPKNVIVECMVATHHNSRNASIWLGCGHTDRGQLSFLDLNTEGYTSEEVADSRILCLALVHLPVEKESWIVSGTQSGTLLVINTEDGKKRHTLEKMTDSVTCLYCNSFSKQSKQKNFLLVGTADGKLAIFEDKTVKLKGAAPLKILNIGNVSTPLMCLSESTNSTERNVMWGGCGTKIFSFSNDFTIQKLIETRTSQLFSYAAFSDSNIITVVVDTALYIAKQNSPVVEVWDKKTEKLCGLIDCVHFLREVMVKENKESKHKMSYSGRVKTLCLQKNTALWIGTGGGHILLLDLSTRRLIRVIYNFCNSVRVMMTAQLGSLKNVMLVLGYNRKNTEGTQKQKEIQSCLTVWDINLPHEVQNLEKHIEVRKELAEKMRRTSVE
Format: cell-based
Source text: To determine the activity of compounds against LRRK2 kinase activity in cells, the observed LRRK2 kinase-dependent modulation of LRRK2 Ser 935 phosphorylation (Dzamko et al., 2010, Biochem. J. 430: 405-413) was utilized to develop a quantitative 384 well plate-based immunoassay of LRRK2 Ser935 phosphorylation in the human neuroblastoma cell line SH-SY5Y, engineered to over-express recombinant full length LRRK2 protein.
A BacMam virus expressing full length recombinant LRRK2 was purchased from Invitrogen and amplified by inoculation of SF-9 cells at MOI 0.3 for 4-5 days in Sf-900 III SFM medium supplemented with 3% fetal bovine serum. Infected cell cultures were then centrifuged at 2000 g for 20 minutes, viral supernatant titer determined by anti-gp64 plaque assay and stored at 4° C.
Affinity-purified anti-phospho LRRK2 Ser935 sheep polyclonal antibody (Dzamko et al., 2010, Biochem. J. 430: 405-413) was biotinylated by standard methods (PerkinElmer). Anti-LRRK2 rabbit polyclonal antibody was purchased from Novus Biologicals. AlphaScreen Protein A IgG Kit (including acceptor and donor beads) was purchased from Perkin Elmer.
SH-SY5Y cells were grown in DMEM/F12 medium with 10% dialysed fetal bovine serum and harvested by treatment with 0.5% trypsin-EDTA for 5 minutes at 37° C. followed by centrifugation at 1000 rpm for 4 minutes. The cell pellet was resuspended in Opti-MEM reduced serum media (Invitrogen) at 200,000 cells/ml and mixed with the BacMam LRRK2 virus at M01=50. 50 μl cell solutions were then dispensed to each well of a 384-well plate and incubated at 37° C., 5% CO2 for 24 hours.
Serial dilutions of test compounds were prepared in Opti-MEM reduced serum media (Invitrogen) and 5.6 ul transferred from compound plate to cell assay plate to achieve a top final assay concentration of 10 uM. DMSO was used in certain wells as controls. Cells were incubated at 37° C., 5% CO2 for 60 minutes. The medium was then removed and cells lysed by addition of 20 ul cell lysis buffer (Cell Signaling Technology) and incubation at 4° C. for 20 minutes. 10 ul of antibody/acceptor bead mix [( 1/1000 biotinylated-pS935 LRRK2 antibody, 1/1000 total-LRRK2 antibody, 1/100 Acceptor beads in AlphaScreen detection buffer (25 mM Hepes (pH 7.4), 0.5% Triton X-100, 1 mg/ml Dextran 500 and 0.1% BSA)] was then added to each well and plates incubated for 2 hours at ambient temperature in the dark. 10 μl of donor beads solution (1/33.3 donor beads in AlphaScreen detection buffer) was then added to each well. Following incubation for a further 2 hours at ambient temperature in the dark, plates were read on an EnVision™ plate reader at emission 520-620 nm with excitation 680 nm. Dose response curve data was based on sigmoidal dose-response model.

Row | SMILES | IC50
1 | CCc1nc(N2CCOCC2)cc(-n2ncc3cc(C)c(C4CCN(C)CC4(F)F)cc32)n1 (single isomer, unassigned) [Example E11, 4-(6-(6-(3,3-Difluoro-1-methylpiperidin-4-yl)-5-methyl-1H-indazol-1-yl)-2-ethylpyrimidin-4-yl)morpholine] | > 10000 nM
2 | Cc1cc2cnn(-c3cc(N4CCOCC4)nc(OC(C)C)n3)c2cc1C1CCN(C2COC2)CC1(F)F (single isomer, unassigned) [Example E25, 4-(6-(6-(3,3-Difluoro-1-(oxetan-3-yl)piperidin-4-yl)-5-methyl-1H-indazol-1-yl)-2-isopropoxypyrimidin-4-yl)morpholine] | > 10000 nM
3 | CNC(=O)[C@H]1CN(c2cc(-n3ncc4cc(C)c(C5CCN(CCOC)CC5F)cc43)ncn2)CCO1 (single isomer, unassigned) [Example E29] | ≤ 100 nM
4 | CNC(=O)[C@@H]1CN(c2cc(-n3ncc4cc(C)c(C5CCN(CCOC)CC5F)cc43)ncn2)CCO1 (single isomer, unassigned) [Example E30] | ≤ 100 nM
5 | CNC(=O)[C@@H]1CN(c2cc(-n3ncc4cc(C)c(C5CCN(C6COC6)CC5F)cc43)ncn2)CCO1 (single isomer, unassigned) [Example E34] | ≤ 100 nM
6 | Cc1cc2cnn(-c3cc(N4CC(O)C4)nc(C4CC4)n3)c2cc1[C@H]1CCN(C)C[C@H]1F (single isomer, unassigned) [Example E46, (cis)-1-(2-Cyclopropyl-6-(6-(3-fluoro-1-methylpiperidin-4-yl)-5-methyl-1H-indazol-1-yl)pyrimidin-4-yl)azetidin-3-ol] | ≤ 100 nM
7 | COc1nc(N2CC(O)C2)cc(-n2ncc3cc(C)c([C@@H]4CN(C)C[C@@H]4F)cc32)n1 (single isomer, unassigned) [Example E74, (cis)-1-(6-(6-(4-Fluoro-1-methylpyrrolidin-3-yl)-5-methyl-1H-indazol-1-yl)-2-methoxypyrimidin-4-yl)azetidin-3-ol] | > 10000 nM
8 | COCCN1CCC(c2ncc3cnn(-c4ccnc(N5CCOCC5)c4)c3n2)C(F)C1 (single isomer, unassigned) [Example E76, (cis)-4-(4-(6-(3-Fluoro-1-(2-methoxyethyl)piperidin-4-yl)-1H-pyrazolo[3,4-d]pyrimidin-1-yl)pyridin-2-yl)morpholine] | > 10000 nM
9 | Cc1nc(N2CC[C@H](O)C2)cc(-n2ncc3cc(C)c(C4CCN(C)CC4F)cc32)n1 (single isomer, unassigned) [Example E128] | ≤ 100 nM
10 | Cc1nc(N2CC(OCCO)C2)cc(-n2ncc3cc(C)c([C@H]4CCN(C)C[C@H]4F)cc32)n1 (single isomer, unassigned) [Example E132, (cis)-2-((1-(6-(6-(3-Fluoro-1-methylpiperidin-4-yl)-5-methyl-1H-indazol-1-yl)-2-methylpyrimidin-4-yl)azetidin-3-yl)oxy)ethanol] | ≤ 100 nM
11 | COc1nc(N2CC(O)C(F)C2)cc(-n2ncc3cc(C)c(C4CCN(C5COC5)CC4)cc32)n1 (single isomer, unassigned) [Example E219, (trans)-4-Fluoro-1-(2-methoxy-6-(5-methyl-6-(1-(oxetan-3-yl)piperidin-4-yl)-1H-indazol-1-yl)pyrimidin-4-yl)pyrrolidin-3-ol] | ≤ 100 nM
12 | COc1nc(N2CC(O)C2)cc(-n2ncc3cc(C)c(C4(F)CCCN(C)C4)cc32)n1 (single isomer, unassigned) [Example E221, 1-(6-(6-(3-Fluoro-1-methylpiperidin-3-yl)-5-methyl-1H-indazol-1-yl)-2-methoxypyrimidin-4-yl)azetidin-3-ol] | > 10000 nM
13 | Cc1nc(N2CCO[C@@H](CO)C2)cc(-n2ncc3cc(C)c(C4CCCCO4)cc32)n1 (single isomer, unassigned) [Example E245] | > 10000 nM
14 | Cc1nc(N2CC(O)C2)cc(-n2ncc3cc(C)c(C4CCOCC4F)cc32)n1 (single isomer, unassigned) [Example E246, 1-(6-(6-(3-Fluorotetrahydro-2H-pyran-4-yl)-5-methyl-1H-indazol-1-yl)-2-methylpyrimidin-4-yl)azetidin-3-ol] | ≤ 100 nM

Results, then the compound that gave them:

Row | IC50 | SMILES
15 | > 10000 nM | Cc1cc2cnn(-c3cc(N4CCOCC4)nc(OC(C)C)n3)c2cc1C1CCN(C)CC1(F)F (single isomer, unassigned) [Example E7, 4-(6-(6-(3,3-Difluoro-1-methylpiperidin-4-yl)-5-methyl-1H-indazol-1-yl)-2-isopropoxypyrimidin-4-yl)morpholine]
16 | > 10000 nM | Cc1cc2cnn(-c3cc(N4CCOCC4)nc(C#N)n3)c2cc1C1CCN(C)CC1(F)F (single isomer, unassigned) [Example E9, 4-(6-(3,3-Difluoro-1-methylpiperidin-4-yl)-5-methyl-1H-indazol-1-yl)-6-morpholinopyrimidine-2-carbonitrile]
17 | ≤ 100 nM | CCOc1nc(N2CCOCC2)cc(-n2ncc3cc(C)c(C4CCN(C5COC5)CC4(F)F)cc32)n1 (single isomer, unassigned) [Example E24, 4-(6-(6-(3,3-Difluoro-1-(oxetan-3-yl)piperidin-4-yl)-5-methyl-1H-indazol-1-yl)-2-ethoxypyrimidin-4-yl)morpholine]
18 | ≤ 100 nM | CNC(=O)[C@H]1CN(c2cc(-n3ncc4cc(C)c(C5CCN(C6COC6)CC5F)cc43)ncn2)CCO1 (single isomer, unassigned) [Example E35]
19 | ≤ 100 nM | Cc1nc(-n2ncc3cc(C)c(C4CCN(C5COC5)CC4F)cc32)cc([C@H]2C[C@@H](O)C2)n1 (single isomer, unassigned) [Example E44, (cis)-(1s,3s)-3-(6-(6-(3-Fluoro-1-(oxetan-3-yl)piperidin-4-yl)-5-methyl-1H-indazol-1-yl)-2-methylpyrimidin-4-yl)cyclobutanol]
20 | > 10000 nM | COc1nc(N2CC(O)C2)cc(-n2ncc3cc(C)c(C4CCN(C)C(=O)C4)cc32)n1 (single isomer, unassigned) [Example E87, 4-(1-(6-(3-Hydroxyazetidin-1-yl)-2-methoxypyrimidin-4-yl)-5-methyl-1H-indazol-6-yl)-1-methylpiperidin-2-one]
21 | ≤ 100 nM | CCN1CC[C@H](c2cc3c(cnn3-c3cc(N4CC(O)C4)nc(C)n3)cc2C)[C@H](F)C1 (single isomer, unassigned) [Example E146, (cis)-1-(6-(6-(1-Ethyl-3-fluoropiperidin-4-yl)-5-methyl-1H-indazol-1-yl)-2-methylpyrimidin-4-yl)azetidin-3-ol]
22 | > 10000 nM | Cc1nc(N2CC(O)C2)cc(-n2ncc3cc(C)c(C4CN(C)CCO4)cc32)n1 (single isomer, unassigned) [Example E228, 1-(2-M ethyl-6-(5-methyl-6-(4-methylmorpholin-2-yl)-1H-indazol-1-yl)pyrimidin-4-yl)azetidin-3-ol]
23 | > 10000 nM | COc1nc(N2CC(O)C2)cc(-n2ncc3cc(C)c(C4CN(C)CCO4)cc32)n1 (single isomer, unassigned) [Example E229, 1-(2-Methoxy-6-(5-methyl-6-(4-methylmorpholin-2-yl)-1H-indazol-1-yl)pyrimidin-4-yl)azetidin-3-ol]
24 | > 10000 nM | Cc1nc(N2CCO[C@@H](CO)C2)cc(-n2ncc3cc(C)c(C4CCCOC4)cc32)n1 (single isomer, unassigned) [Example E240]
25 | ≤ 100 nM | Cc1nc(N2CCO[C@@H](CO)C2)cc(-n2ncc3cc(C)c(C4CCOCC4F)cc32)n1 (single isomer, unassigned) [Example E250]
